Among the test systems are ACHN renal; HOP-92 NSCLC; NCI-H226 lung; OVCAR-8 ovarian; RPMI-8226 leukemia; SK-OV-3 ovarian; SR leukemia; MALME-3M melanoma; SNB-75 CNS; EKVX NSCLC.
Common to all, as to assay: DTP human tumour cell line panel, 48 h

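All cell lines were grown in 96-well plates and treated with compound for 48 hours. At the GI50, growth is halved. TGI: total growth inhibition.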

The term GI50 denotes the concentration giving 50% growth inhibition. What is called TGI is the concentration giving total growth inhibition. Read a low TGI as greater sensitivity of the cells.

For the molecule `COc1cc(C(=O)NC2CCN(C)CC2)c(F)cc1Nc1ncc2c(n1)N(C1CCCC1)CC(F)(F)C(=O)N2C`, the GI50 with ACHN renal is < 0.0378 µM; with HOP-92 NSCLC, 0.0326 µM; with NCI-H226 lung, 2.64 µM; with OVCAR-8 ovarian, 0.0338 µM; with RPMI-8226 leukemia it was < 0.022 µM; in the experiment on SK-OV-3 ovarian, < 0.0132 µM. The GI50 in the experiment on SR leukemia was < 0.01 µM. The TGI in the experiment with ACHN renal stood at 14.4 µM; in the experiment with HOP-92 NSCLC, 0.391 µM; in the experiment with NCI-H226 lung, 18.7 µM; with OVCAR-8 ovarian it was 18.7 µM; with RPMI-8226 leukemia, 3.26 µM; in the experiment with SK-OV-3 ovarian it was 1.02 µM.
Consider `O=[N+]([O-])c1cccc([As]=[As]c2cccc([N+](=O)[O-])c2)c1` (stereo unspecified), for which the GI50 in the experiment on ACHN renal was 0.111 µM; with HOP-92 NSCLC, 0.0433 µM; with MALME-3M melanoma it was 0.0562 µM; in the experiment on NCI-H226 lung, 0.143 µM; in the experiment with OVCAR-8 ovarian, 0.141 µM; in the experiment on RPMI-8226 leukemia, 0.0495 µM. Moreover, the GI50 with SK-OV-3 ovarian was 0.177 µM; with SNB-75 CNS it was 0.0611 µM; in the experiment on SR leukemia it was 0.0275 µM. Besides, the TGI in the experiment on ACHN renal was determined as 0.242 µM; with HOP-92 NSCLC, 0.173 µM; in the experiment on MALME-3M melanoma, 0.155 µM; with NCI-H226 lung it was 0.287 µM; in the experiment with OVCAR-8 ovarian it was 0.284 µM; in the experiment on RPMI-8226 leukemia it was 0.18 µM. In addition, the TGI in the experiment on SK-OV-3 ovarian turned out to be 0.317 µM; with SNB-75 CNS, 0.206 µM; in the experiment on SR leukemia, 0.1 µM.
In the case of `Cc1ccccc1NC(=O)C(=O)CC(=O)c1c(C)n([O-])c2ccccc2[n+]1=O`, the TGI in the experiment with ACHN renal, in the experiment with EKVX NSCLC, with MALME-3M melanoma, in the experiment on NCI-H226 lung, in the experiment on OVCAR-8 ovarian and in the experiment on RPMI-8226 leukemia was > 100 µM throughout. The TGI is > 100 µM in the experiment with SK-OV-3 ovarian, > 100 µM in the experiment on SNB-75 CNS and 0.0875 µM with SR leukemia.
As to `NC(=O)c1c(NC(=O)c2ccc3c(c2)OCO3)sc2c1CCC(=O)C2`, the GI50 with ACHN renal was 1.51 µM; with HOP-92 NSCLC, 1.65 µM; with MALME-3M melanoma, 2.04 µM; in the experiment on OVCAR-8 ovarian, 1.75 µM; in the experiment on RPMI-8226 leukemia it was 0.339 µM; in the experiment on SNB-75 CNS it was 2.13 µM. In the experiment on SR leukemia, the GI50 was 0.372 µM. Also, the TGI with ACHN renal is 5.11 µM; in the experiment on HOP-92 NSCLC it was 5.91 µM; with MALME-3M melanoma, 4.67 µM; in the experiment on OVCAR-8 ovarian, > 100 µM; with RPMI-8226 leukemia, 1.6 µM; in the experiment on SNB-75 CNS it was 6.5 µM. The TGI in the experiment on SR leukemia was > 100 µM.
`Cc1ccc(S(=O)(=O)Nc2cccc3[nH]c(C(F)(F)F)nc23)cc1`: the GI50 is 0.799 µM in the experiment with ACHN renal; 0.957 µM with HOP-92 NSCLC; 1.95 µM in the experiment with MALME-3M melanoma; 3.73 µM in the experiment with NCI-H226 lung; 1.22 µM in the experiment on OVCAR-8 ovarian; 0.772 µM in the experiment on RPMI-8226 leukemia. The GI50 is 1.34 µM in the experiment with SK-OV-3 ovarian, 0.314 µM with SNB-75 CNS and 0.383 µM in the experiment with SR leukemia. Also, the TGI was > 60.6 µM in the experiment with ACHN renal; 9.32 µM in the experiment with HOP-92 NSCLC; 37.3 µM in the experiment with MALME-3M melanoma; 29.1 µM in the experiment on NCI-H226 lung; > 47.8 µM in the experiment on OVCAR-8 ovarian; 13.7 µM with RPMI-8226 leukemia. The TGI was 25 µM in the experiment on SK-OV-3 ovarian, 2.45 µM in the experiment with SNB-75 CNS and 22 µM with SR leukemia.
In the case of `Cn1cc(C2=C(c3cccc(OCC(O)CO)c3)C(=O)NC2=O)c2ccccc21` (stereo unspecified), the GI50 with ACHN renal, in the experiment with HOP-92 NSCLC, in the experiment on MALME-3M melanoma, in the experiment with NCI-H226 lung, in the experiment on OVCAR-8 ovarian and in the experiment with RPMI-8226 leukemia was > 25 µM in each case. The values for the GI50 in the experiment with SK-OV-3 ovarian, in the experiment on SNB-75 CNS and in the experiment on SR leukemia were > 25 µM, 5.86 µM and > 25 µM, respectively. For the same molecule, the TGI in the experiment with ACHN renal, with HOP-92 NSCLC, in the experiment on MALME-3M melanoma, in the experiment with NCI-H226 lung, in the experiment with OVCAR-8 ovarian and with RPMI-8226 leukemia was > 25 µM throughout. Further, the TGI in the experiment with SK-OV-3 ovarian, with SNB-75 CNS and in the experiment on SR leukemia was > 25 µM throughout.
As for `Cc1ccc(C)c(NC(=O)CC/C(=N\NC(=O)c2c(O)ccc3ccccc23)C(C)C(=O)c2ccc(O)cc2)c1` (stereo unspecified), the TGI in the experiment with ACHN renal is 84.6 µM; in the experiment with HOP-92 NSCLC it was > 100 µM; in the experiment on MALME-3M melanoma, 90.2 µM; in the experiment on NCI-H226 lung, 98.8 µM; in the experiment on OVCAR-8 ovarian it was 75.9 µM; in the experiment on RPMI-8226 leukemia, > 100 µM. For the same molecule, the figures for the TGI in the experiment on SNB-75 CNS and in the experiment on SR leukemia were > 100 µM and 90.3 µM, respectively.
Regarding `Nc1[nH]nc2nc(-c3cccs3)cc(C(F)(F)F)c12`, the GI50 in the experiment with ACHN renal was > 21.6 µM; in the experiment with HOP-92 NSCLC it was > 14.1 µM; with MALME-3M melanoma it was > 25 µM; in the experiment on NCI-H226 lung, > 23.2 µM; in the experiment on OVCAR-8 ovarian, > 25 µM; in the experiment on RPMI-8226 leukemia it was > 25 µM. Further, the GI50 is > 25 µM with SK-OV-3 ovarian, > 25 µM with SNB-75 CNS and > 13.7 µM in the experiment on SR leukemia. Moreover, the TGI with ACHN renal, in the experiment on HOP-92 NSCLC, in the experiment with MALME-3M melanoma, in the experiment on NCI-H226 lung, in the experiment on OVCAR-8 ovarian and with RPMI-8226 leukemia was > 25 µM in each case. The TGI in the experiment on SK-OV-3 ovarian, in the experiment with SNB-75 CNS and in the experiment with SR leukemia was > 25 µM in each case.
